According to patent US20160002204A1 (Board of Regents, The University of Texas System, priority 2014, published 2016):

What was measured:
[1] = biological target: T1, GLS1 (purified recombinant human GAC) (Homo sapiens, UniProt O94925); test: GLS1 enzymatic activity assay (dual-coupled, Amplex UltraRed/resorufin); assay type: biochemical
T1 sequence (O94925 55-598 isoform O94925-3 limits assumed): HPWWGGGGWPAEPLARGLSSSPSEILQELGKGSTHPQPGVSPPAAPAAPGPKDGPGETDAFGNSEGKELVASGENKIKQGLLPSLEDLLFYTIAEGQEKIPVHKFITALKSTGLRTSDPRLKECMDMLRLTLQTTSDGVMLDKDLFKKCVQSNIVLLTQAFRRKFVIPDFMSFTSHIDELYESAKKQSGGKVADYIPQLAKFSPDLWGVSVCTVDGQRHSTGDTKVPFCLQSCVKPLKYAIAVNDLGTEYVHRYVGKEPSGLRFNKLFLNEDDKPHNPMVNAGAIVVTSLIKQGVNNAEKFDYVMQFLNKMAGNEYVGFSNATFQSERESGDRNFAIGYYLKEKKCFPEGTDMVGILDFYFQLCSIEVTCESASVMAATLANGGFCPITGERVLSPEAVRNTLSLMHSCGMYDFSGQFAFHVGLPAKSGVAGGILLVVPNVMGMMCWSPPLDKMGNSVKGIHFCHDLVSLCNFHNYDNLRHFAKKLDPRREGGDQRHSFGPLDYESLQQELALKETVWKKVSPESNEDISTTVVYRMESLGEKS
Outline: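 Recombinant human GAC (2 nM) preincubated with 50 mM potassium phosphate, then inhibitor (10 min each, RT); 1 mM glutamine, pH 7.4 Hepes buffer, 1% DMSO. Glutamate coupled via glutamate oxidase/HRP to resorufin (Ex 530/Em 590), kinetic or 20-min endpoint; IC50 by four-parameter logistic fit.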

A549 cells = test: A549 proliferation (viability) assay, Cell Titer Fluor, 72 hours; assay type: cell-based; details: Homo sapiens
Outline: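 Compound exposure lasted 72 h (final DMSO 0.5% v/v) on A549 cells plated at 1000 cells/well one day earlier. Cell Titer Fluor added, 30 min at 37 °C, fluorescence read; EC50 derived by four-parameter logistic curve fitting.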

## CC(C)(C)OC(=O)NCc1cccc(CC(=O)Nc2ccn(CCC(F)Cn3cc(C(=O)NCc4cccc(OC(F)(F)F)c4)nn3)c(=O)c2)c1 (stereo not shown) [Example 222, tert-butyl N-[(3-{[(1-{3-fluoro-4-[4-({[3-(trifluoro-methoxy)phenyl]methyl}carbamoyl)-1H-1,2,3-triazol-1-yl]butyl}-2-oxo-1,2-dihydropyridin-4-yl)carbamoyl]methyl}phenyl)methyl] carbamate]
[1]
  IC50: < 100 nM
A549 cells
  EC50: 100 to 500 nM

## O=C(NCc1cccc(OC(F)(F)F)c1)c1cn(CC(F)CCn2ccc(NC(=O)[C@H](O)c3ccccc3)cc2=O)nn1 (stereo partly drawn) [Example 223, 1-(2-fluoro-4-{4-[(2R)-2-hydroxy-2-phenylacetamido]-2-oxo-1,2-dihydropyridin-1-yl}butyl)-N-{[3-(trifluoromethoxy)phenyl]methyl}-1H-1,2,3-triazole-4-carboxamide]
[1]
  IC50: < 100 nM
A549 cells
  EC50: < 100 nM

## O=C(NCc1cccc(OC(F)(F)F)c1)c1cn(CC(F)CCn2ccc(NC(=O)[C@@H](O)c3ccccc3)cc2=O)nn1 (stereo partly drawn) [Example 224, 1-(2-fluoro-4-{4-[(2S)-2-hydroxy-2-phenylacetamido]-2-oxo-1,2-dihydropyridin-1-yl}butyl)-N-{[3-(trifluoromethoxy)phenyl]methyl}-1H-1,2,3-triazole-4-carboxamide]
[1]
  IC50: < 100 nM
A549 cells
  EC50: < 100 nM

## CC(C)(C)OC(=O)Nc1ccn(CCC(F)Cn2cc(C(=O)NCc3cccc(OC(F)(F)F)c3)nn2)c(=O)c1F (stereo not shown) [Example 226, tert-butyl N-(3-fluoro-1-{3-fluoro-4-[4-({[3-(trifluoro-methoxy)phenyl]methyl}carbamoyl)-1H-1,2,3-triazol-1-yl]butyl}-2-oxo-1,2-dihydropyridin-4-yl)carbamate]
[1]
  IC50: < 100 nM
A549 cells
  EC50: < 100 nM

## O=C(CN1CCC(F)C1)Nc1ccn(CCC(F)Cn2cc(C(=O)NCc3cccc(OC(F)(F)F)c3)nn2)c(=O)c1 (stereo not shown) [Example 227, 1-(2-fluoro-4-{4-[2-(3-fluoropyrrolidin-1-yl)acetamido]-2-oxo-1,2-dihydropyridin-1-yl}butyl)-N-{[3-(trifluoromethoxy)phenyl]methyl}-1H-1,2,3-triazole-4-carboxamide]
[1]
  IC50: < 100 nM
A549 cells
  EC50: 100 to 500 nM

## O=C(CN1CCSCC1)Nc1ccn(CCC(F)Cn2cc(C(=O)NCc3cccc(OC(F)(F)F)c3)nn2)c(=O)c1 (stereo not shown) [Example 228, 1-(2-fluoro-4-{2-oxo-4-[2-(thiomorpholin-4-yl)acetamido]-1,2-dihydropyridin-1-yl}butyl)-N-{[3-(trifluoromethoxy)phenyl]methyl}-1H-1,2,3-triazole-4-carboxamide]
[1]
  IC50: < 100 nM
A549 cells
  EC50: < 100 nM

## CC(=O)N1CCN(CC(=O)Nc2ccn(CCC(F)Cn3cc(C(=O)NCc4cccc(OC(F)(F)F)c4)nn3)c(=O)c2)CC1 (stereo not shown) [Example 229, 1-(4-{4-[2-(4-acetylpiperazin-1-yl)acetamido]-2-oxo-1,2-dihydropyridin-1-yl}-2-fluorobutyl)-N-{[3-(trifluoromethoxy)phenyl]methyl}-1H-1,2,3-triazole-4-carboxamide]
[1]
  IC50: 100 to 500 nM
A549 cells
  EC50: 500 to 5000 nM

## O=C(CN1CCS(=O)(=O)CC1)Nc1ccn(CCC(F)Cn2cc(C(=O)NCc3cccc(OC(F)(F)F)c3)nn2)c(=O)c1 (stereo not shown) [Example 231, 1-(4-{4-[2-(1,1-dioxo-1$l^6,4-thiomorpholin-4-yl)acetamido]-2-oxo-1,2-dihydropyridin-1-yl}-2-fluorobutyl)-N-{[3-(trifluoromethoxy)phenyl]methyl}-1H-1,2,3-triazole-4-carboxamide]
[1]
  IC50: 100 to 500 nM
A549 cells
  EC50: > 5000 nM

## O=C(CN1CC(F)(F)C1)Nc1ccn(CCC(F)Cn2cc(C(=O)NCc3cccc(OC(F)(F)F)c3)nn2)c(=O)c1 (stereo not shown) [Example 232, 1-(4-{4-[2-(3,3-difluoroazetidin-1-yl)acetamido]-2-oxo-1,2-dihydropyridin-1-yl}-2-fluorobutyl)-N-{[3-(trifluoromethoxy)phenyl]methyl}-1H-1,2,3-triazole-4-carboxamide]
[1]
  IC50: < 100 nM
A549 cells
  EC50: 100 to 500 nM

## CC(C)(C)OC(=O)Nc1ccn(CCC(F)Cn2cc(C(=O)NCc3cc(Cl)ccc3F)nn2)c(=O)c1 (stereo not shown) [Example 233, tert-butyl N-{1-[4-(4-{[(5-chloro-2-fluorophenyl)methyl]carbamoyl}-1H-1,2,3-triazol-1-yl)-3-fluorobutyl]-2-oxo-1,2-dihydropyridin-4-yl}carbamate]
[1]
  IC50: < 100 nM
A549 cells
  EC50: 500 to 5000 nM

## CC(C)(C)OC(=O)Nc1ccn(CCC(F)Cn2cc(C(=O)NCc3cccc(OC(F)(F)F)c3)nn2)c(=O)c1 (stereo not shown) [Example 234, tert-butyl N-(1-{3-fluoro-4-[4-({[3-(trifluoromethoxy)phenyl]methyl]carbamoyl)-1H-1,2,3-triazol-1-yl]butyl}-2-oxo-1,2-dihydropyridin-4-yl)carbamate]
[1]
  IC50: < 100 nM
A549 cells
  EC50: 100 to 500 nM

## N#Cc1cccc(CC(=O)Nc2ccn(CCC(F)Cn3cc(C(=O)NCc4cccc(OC(F)(F)F)c4)nn3)c(=O)c2)c1 (stereo not shown) [Example 235, 1-(4-{4-[2-(3-cyanophenyl)acetamido]-2-oxo-1,2-dihydropyridin-1-yl}-2-fluorobutyl)-N-{[3-(trifluoromethoxy)phenyl]methyl}-1H-1,2,3-triazole-4-carboxamide]
[1]
  IC50: < 100 nM
A549 cells
  EC50: 500 to 5000 nM

## O=C(Cc1cccnc1Cl)Nc1ccn(CCC(F)Cn2cc(C(=O)NCc3cccc(OC(F)(F)F)c3)nn2)c(=O)c1 (stereo not shown) [Example 236, 1-(4-{4-[2-(2-chloropyridin-3-yl)acetamido]-2-oxo-1,2-dihydropyridin-1-yl}-2-fluorobutyl)-N-{[3-(trifluoromethoxy)phenyl]methyl}-1H-1,2,3-triazole-4-carboxamide]
[1]
  IC50: < 100 nM
A549 cells
  EC50: 500 to 5000 nM

## O=C(Cc1cccc(N2CCOCC2)c1)Nc1ccn(CCC(F)Cn2cc(C(=O)NCc3cccc(OC(F)(F)F)c3)nn2)c(=O)c1 (stereo not shown) [Example 237, 1-[2-fluoro-4-(4-{2-[3-(morpholin-4-yl)phenyl]acetamido}-2-oxo-1,2-dihydropyridin-1-yl)butyl]-N-{[3-(trifluoromethoxy)phenyl]methyl}-1H-1,2,3-triazole-4-carboxamide]
[1]
  IC50: < 100 nM
A549 cells
  EC50: 100 to 500 nM

## O=C(Cc1ccc(Cl)nc1)Nc1ccn(CCC(F)Cn2cc(C(=O)NCc3cccc(OC(F)(F)F)c3)nn2)c(=O)c1 (stereo not shown) [Example 238, 1-(4-{4-[2-(6-chloropyridin-3-yl)acetamido]-2-oxo-1,2-dihydropyridin-1-yl}-2-fluorobutyl)-N-{[3-(trifluoromethoxy)phenyl]methyl}-1H-1,2,3-triazole-4-carboxamide]
[1]
  IC50: < 100 nM
A549 cells
  EC50: 100 to 500 nM

## CC(C)(C)OC(=O)N[C@H]1CC[C@H](CC(=O)Nc2ccn(CCC(F)Cn3cc(C(=O)NCc4cccc(OC(F)(F)F)c4)nn3)c(=O)c2)CC1 (stereo partly shown) [Example 239, tert-butyl N-[(1r,4r)-4-{[(1-{3-fluoro-4-[4-({[3-(trifluoromethoxy)phenyl]methyl}carbamoyl)-1H-1,2,3-triazol-1-yl]butyl}-2-oxo-1,2-dihydropyridin-4-yl)carbamoyl]methyl}cyclo-hexyl]carbamate]
[1]
  IC50: < 100 nM
A549 cells
  EC50: < 100 nM

## COc1ccc(CC(=O)Nc2ccn(CCC(F)Cn3cc(C(=O)NCc4cccc(OC(F)(F)F)c4)nn3)c(=O)c2)cn1 (stereo not shown) [Example 240, 1-(2-fluoro-4-{4-[2-(6-methoxypyridin-3-yl)acetamido]-2-oxo-1,2-dihydropyridin-1-yl}butyl)-N-{[3-(trifluoromethoxy)phenyl]methyl}-1H-1,2,3-triazole-4-carboxamide]
[1]
  IC50: < 100 nM
A549 cells
  EC50: 500 to 5000 nM
